How the values were obtained:
Test in all cases: KINOMEscan competition binding
Conditions in all cases: compound 0.5 µM
CDK7 (human) = CDK7 (human) (UniProt P50613)
CIT (human) = CIT (human) (UniProt O14578)
[1] = tested on: KIT (human), P10721 [A829P]
CHEK2 (human) = CHEK2 (human) (UniProt O96017)
MAP2K5 (human) = MAP2K5 (human) (UniProt Q13163)
[2] = tested on: ABL1 (human), P00519 [M351T]
PRPF4B (human) = PRPF4B (human) (UniProt Q13523)
PTK2 (human) = PTK2 (human) (UniProt Q05397)
TNNI3K (human) = TNNI3K (human) (UniProt Q59H18)
CDK19 (human) = CDK19 (human) (UniProt Q9BWU1)
EPHA7 (human) = EPHA7 (human) (UniProt Q15375)
ACVR2B (human) = ACVR2B (human) (UniProt Q13705)
EPHA5 (human) = EPHA5 (human) (UniProt P54756)
MAP2K3 (human) = MAP2K3 (human) (UniProt P46734)
WEE2 (human) = WEE2 (human) (UniProt P0C1S8)
PIK3CA (human) = PIK3CA (human) (UniProt P42336)
BMPR2 (human) = BMPR2 (human) (UniProt Q13873)
CDK18 (human) = CDK18 (human) (UniProt Q07002)
MAPK3 (human) = MAPK3 (human) (UniProt P27361)
TESK1 (human) = TESK1 (human) (UniProt Q15569)
FGR (human) = FGR (human) (UniProt P09769)
STK36 (human) = STK36 (human) (UniProt Q9NRP7)
RPS6KA2 KD2 (human) = RPS6KA2 KD2 (human) (UniProt Q15349)
RIPK1 (human) = RIPK1 (human) (UniProt Q13546)
MAP3K7 (human) = MAP3K7 (human) (UniProt O43318)
ANKK1 (human) = ANKK1 (human) (UniProt Q8NFD2)
[3] = tested on: KIT (human), P10721 [V559D/T670I]
DDR1 (human) = DDR1 (human) (UniProt Q08345)
ICK (human) = ICK (human) (UniProt Q9UPZ9)
[4] = tested on: FLT3 (human), P36888 [ITD]
RPS6KA1 KD1 (human) = RPS6KA1 KD1 (human) (UniProt Q15418)
[5] = tested on: FLT3 (human), P36888 [N841I]
MAP2K7 (human) = MAP2K7 (human) (UniProt O14733)
CDK2 (human) = CDK2 (human) (UniProt P24941)
[6] = biological target: JAK2 JH1 catalytic (human) (UniProt O60674)
FRK (human) = FRK (human) (UniProt P42685)
FLT3 (human) = FLT3 (human) (UniProt P36888)
ZAP70 (human) = ZAP70 (human) (UniProt P43403)
MAPK10 (human) = MAPK10 (human) (UniProt P53779)
[7] = biological target: JAK1 JH1 catalytic (human) (UniProt P23458)
RPS6KB1 (human) = RPS6KB1 (human) (UniProt P23443)
Sequence of RPS6KB1 (human) (P23443 whole entry, looked up): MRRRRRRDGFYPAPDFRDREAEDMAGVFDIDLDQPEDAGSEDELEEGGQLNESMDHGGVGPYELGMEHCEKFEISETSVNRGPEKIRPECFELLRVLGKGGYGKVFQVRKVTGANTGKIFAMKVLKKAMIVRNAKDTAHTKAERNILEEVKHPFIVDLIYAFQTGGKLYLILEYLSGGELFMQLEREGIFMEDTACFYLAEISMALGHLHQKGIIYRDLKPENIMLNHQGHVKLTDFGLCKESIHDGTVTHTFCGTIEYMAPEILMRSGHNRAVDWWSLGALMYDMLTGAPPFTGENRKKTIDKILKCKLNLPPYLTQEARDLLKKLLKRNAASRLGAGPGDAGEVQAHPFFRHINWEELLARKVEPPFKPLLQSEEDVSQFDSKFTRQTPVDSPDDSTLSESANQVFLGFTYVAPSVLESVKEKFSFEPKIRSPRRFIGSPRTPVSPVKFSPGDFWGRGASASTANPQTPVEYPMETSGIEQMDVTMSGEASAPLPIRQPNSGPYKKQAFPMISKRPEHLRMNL

Sequence of EPHA5 (human) (P54756 whole entry, looked up): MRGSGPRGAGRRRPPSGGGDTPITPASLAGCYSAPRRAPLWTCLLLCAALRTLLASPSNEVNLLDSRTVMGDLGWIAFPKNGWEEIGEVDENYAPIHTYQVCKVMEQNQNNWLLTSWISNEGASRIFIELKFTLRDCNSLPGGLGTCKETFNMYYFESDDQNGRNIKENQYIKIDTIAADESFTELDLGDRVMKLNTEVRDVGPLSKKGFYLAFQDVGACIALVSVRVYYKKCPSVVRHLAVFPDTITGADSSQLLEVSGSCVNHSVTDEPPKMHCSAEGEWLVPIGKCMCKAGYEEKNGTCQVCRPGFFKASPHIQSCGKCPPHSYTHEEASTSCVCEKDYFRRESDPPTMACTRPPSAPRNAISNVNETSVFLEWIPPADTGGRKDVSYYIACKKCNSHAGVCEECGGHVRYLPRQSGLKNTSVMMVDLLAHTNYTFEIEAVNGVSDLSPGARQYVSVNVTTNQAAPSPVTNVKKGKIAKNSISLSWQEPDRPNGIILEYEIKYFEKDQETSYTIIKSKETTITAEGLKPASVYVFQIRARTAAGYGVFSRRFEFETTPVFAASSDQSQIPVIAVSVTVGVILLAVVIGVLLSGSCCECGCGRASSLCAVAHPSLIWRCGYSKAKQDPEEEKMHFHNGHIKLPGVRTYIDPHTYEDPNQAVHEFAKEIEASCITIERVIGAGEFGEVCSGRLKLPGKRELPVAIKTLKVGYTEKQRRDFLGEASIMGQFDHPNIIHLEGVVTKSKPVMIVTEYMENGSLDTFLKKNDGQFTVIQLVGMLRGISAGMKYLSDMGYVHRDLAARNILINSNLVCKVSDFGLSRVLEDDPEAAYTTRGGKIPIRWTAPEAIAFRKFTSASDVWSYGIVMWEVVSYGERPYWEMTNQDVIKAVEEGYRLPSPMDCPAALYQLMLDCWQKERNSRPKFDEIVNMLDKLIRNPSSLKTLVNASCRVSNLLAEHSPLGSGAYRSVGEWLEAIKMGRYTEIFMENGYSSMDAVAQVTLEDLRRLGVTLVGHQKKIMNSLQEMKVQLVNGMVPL
Sequence of FGR (human) (P09769 whole entry, looked up): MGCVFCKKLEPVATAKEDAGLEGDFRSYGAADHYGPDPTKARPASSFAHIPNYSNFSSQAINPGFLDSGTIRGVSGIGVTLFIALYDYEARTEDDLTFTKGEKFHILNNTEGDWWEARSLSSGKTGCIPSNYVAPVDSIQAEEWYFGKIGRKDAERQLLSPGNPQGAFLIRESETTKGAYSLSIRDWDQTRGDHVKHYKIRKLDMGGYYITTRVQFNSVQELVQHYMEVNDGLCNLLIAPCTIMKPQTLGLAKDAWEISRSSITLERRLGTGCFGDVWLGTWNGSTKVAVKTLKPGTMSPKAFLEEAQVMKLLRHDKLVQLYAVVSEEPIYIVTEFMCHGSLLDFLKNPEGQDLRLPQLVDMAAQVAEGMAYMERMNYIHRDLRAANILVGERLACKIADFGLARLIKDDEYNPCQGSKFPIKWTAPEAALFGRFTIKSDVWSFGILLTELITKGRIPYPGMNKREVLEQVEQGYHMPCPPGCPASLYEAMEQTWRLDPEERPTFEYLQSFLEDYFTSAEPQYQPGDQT
Sequence of MAP2K5 (human) (Q13163 whole entry, looked up): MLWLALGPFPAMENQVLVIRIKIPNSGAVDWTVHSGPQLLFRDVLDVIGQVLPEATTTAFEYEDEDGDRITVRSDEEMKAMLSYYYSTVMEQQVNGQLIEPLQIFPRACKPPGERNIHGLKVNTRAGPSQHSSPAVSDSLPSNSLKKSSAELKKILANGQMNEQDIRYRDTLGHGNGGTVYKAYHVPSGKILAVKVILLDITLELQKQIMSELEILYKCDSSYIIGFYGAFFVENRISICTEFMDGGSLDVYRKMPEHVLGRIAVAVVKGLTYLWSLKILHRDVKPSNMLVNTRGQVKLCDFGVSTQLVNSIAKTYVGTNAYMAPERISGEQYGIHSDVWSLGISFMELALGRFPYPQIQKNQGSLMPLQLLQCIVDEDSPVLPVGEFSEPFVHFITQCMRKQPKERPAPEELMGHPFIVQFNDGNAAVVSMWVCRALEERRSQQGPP
Sequence of TNNI3K (human) (Q59H18 whole entry, looked up): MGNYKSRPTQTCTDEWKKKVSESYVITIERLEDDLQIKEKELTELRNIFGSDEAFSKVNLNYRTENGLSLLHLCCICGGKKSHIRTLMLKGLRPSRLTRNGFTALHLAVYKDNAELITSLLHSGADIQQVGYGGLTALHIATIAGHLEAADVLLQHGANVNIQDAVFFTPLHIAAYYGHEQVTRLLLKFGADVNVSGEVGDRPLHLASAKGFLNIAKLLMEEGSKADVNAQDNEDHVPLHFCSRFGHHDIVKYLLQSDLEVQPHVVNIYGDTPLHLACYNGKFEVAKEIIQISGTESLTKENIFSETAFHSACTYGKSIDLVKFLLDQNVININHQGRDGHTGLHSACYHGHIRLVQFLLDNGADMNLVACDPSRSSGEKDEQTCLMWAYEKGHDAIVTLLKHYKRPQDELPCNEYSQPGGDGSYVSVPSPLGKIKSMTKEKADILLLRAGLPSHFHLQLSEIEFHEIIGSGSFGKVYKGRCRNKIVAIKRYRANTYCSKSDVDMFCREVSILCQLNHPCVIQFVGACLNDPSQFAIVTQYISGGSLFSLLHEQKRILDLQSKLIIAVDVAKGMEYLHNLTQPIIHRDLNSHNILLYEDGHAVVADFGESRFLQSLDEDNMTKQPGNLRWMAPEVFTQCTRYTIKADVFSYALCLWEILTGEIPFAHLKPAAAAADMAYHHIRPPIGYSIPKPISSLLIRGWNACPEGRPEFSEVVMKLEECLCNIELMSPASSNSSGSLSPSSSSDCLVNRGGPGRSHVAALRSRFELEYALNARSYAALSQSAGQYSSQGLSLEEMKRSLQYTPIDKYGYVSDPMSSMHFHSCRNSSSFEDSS
Sequence of JAK2 JH1 catalytic (human) (O60674 whole entry, looked up): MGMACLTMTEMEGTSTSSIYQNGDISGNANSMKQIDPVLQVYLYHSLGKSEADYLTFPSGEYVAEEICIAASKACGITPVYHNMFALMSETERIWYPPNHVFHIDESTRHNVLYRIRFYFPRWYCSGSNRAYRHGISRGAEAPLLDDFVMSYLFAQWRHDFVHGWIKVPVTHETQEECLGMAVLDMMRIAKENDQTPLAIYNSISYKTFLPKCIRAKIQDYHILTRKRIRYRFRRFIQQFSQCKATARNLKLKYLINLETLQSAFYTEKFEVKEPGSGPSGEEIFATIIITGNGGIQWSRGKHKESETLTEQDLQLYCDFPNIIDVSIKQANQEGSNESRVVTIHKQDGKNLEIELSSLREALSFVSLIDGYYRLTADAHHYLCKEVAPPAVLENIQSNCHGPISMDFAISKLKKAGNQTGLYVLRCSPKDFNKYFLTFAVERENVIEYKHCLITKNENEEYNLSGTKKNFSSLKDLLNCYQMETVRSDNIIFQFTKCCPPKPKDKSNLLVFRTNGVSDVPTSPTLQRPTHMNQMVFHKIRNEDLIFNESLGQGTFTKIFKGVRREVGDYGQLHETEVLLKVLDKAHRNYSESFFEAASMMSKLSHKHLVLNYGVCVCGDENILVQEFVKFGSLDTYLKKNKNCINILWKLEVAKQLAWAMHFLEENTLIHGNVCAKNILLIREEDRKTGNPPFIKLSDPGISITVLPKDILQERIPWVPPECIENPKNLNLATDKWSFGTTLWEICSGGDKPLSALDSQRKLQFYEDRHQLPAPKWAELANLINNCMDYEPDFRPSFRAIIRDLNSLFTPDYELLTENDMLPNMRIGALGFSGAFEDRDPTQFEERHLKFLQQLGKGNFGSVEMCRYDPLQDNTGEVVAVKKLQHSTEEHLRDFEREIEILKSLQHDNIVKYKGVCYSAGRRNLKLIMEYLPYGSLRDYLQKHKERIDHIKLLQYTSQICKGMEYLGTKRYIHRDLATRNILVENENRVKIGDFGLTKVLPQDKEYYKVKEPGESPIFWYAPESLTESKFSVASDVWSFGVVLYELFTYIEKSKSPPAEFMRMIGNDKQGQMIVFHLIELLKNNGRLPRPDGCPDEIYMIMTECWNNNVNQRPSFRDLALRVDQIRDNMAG
Sequence of MAPK10 (human) (P53779 whole entry, looked up): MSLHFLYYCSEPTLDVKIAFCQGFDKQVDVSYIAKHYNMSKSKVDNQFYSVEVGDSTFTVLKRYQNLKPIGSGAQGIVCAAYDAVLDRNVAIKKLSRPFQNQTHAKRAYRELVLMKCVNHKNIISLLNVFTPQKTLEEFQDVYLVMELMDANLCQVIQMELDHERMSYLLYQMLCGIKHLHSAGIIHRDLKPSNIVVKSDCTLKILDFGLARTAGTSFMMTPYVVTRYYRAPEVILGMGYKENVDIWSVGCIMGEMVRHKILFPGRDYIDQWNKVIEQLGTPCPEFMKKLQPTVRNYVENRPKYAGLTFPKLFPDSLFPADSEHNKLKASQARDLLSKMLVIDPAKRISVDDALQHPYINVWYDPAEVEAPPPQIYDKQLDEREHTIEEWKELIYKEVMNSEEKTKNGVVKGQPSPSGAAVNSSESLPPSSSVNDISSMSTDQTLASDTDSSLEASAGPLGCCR

With `Cn1c2ccccc2c2c3c(c4c5ccccc5n(CCC#N)c4c21)CNC3=O` the kinase still bound, per cent of control (CDK7 (human)) was 84%, the kinase still bound, per cent of control (CIT (human)) was 34% and the kinase still bound, per cent of control [1] was 54%. For the same compound, the kinase still bound, per cent of control (CHEK2 (human)) was 31%, the kinase still bound, per cent of control (MAP2K5 (human)) was 58% and the kinase still bound, per cent of control [2] was 88%. It also gave a kinase still bound, per cent of control (PRPF4B (human)) of 12%, a kinase still bound, per cent of control (PTK2 (human)) of 73% and a kinase still bound, per cent of control (TNNI3K (human)) of 100%. For the same compound, the kinase still bound, per cent of control (CDK19 (human)) was 91%, the kinase still bound, per cent of control (EPHA7 (human)) was 81% and the kinase still bound, per cent of control (ACVR2B (human)) was 97%. It also gave a kinase still bound, per cent of control (EPHA5 (human)) of 96%, a kinase still bound, per cent of control (MAP2K3 (human)) of 5% and a kinase still bound, per cent of control (WEE2 (human)) of 100%. For the same compound, the kinase still bound, per cent of control (PIK3CA (human)) was 100%, the kinase still bound, per cent of control (BMPR2 (human)) was 100% and the kinase still bound, per cent of control (CDK18 (human)) was 91%. The kinase still bound, per cent of control (MAPK3 (human)) was 96%, the kinase still bound, per cent of control (TESK1 (human)) was 43% and the kinase still bound, per cent of control (FGR (human)) was 84%. The kinase still bound, per cent of control (STK36 (human)) was 100%, the kinase still bound, per cent of control (RPS6KA2 KD2 (human)) was 100% and the kinase still bound, per cent of control (RIPK1 (human)) was 100%. The kinase still bound, per cent of control (MAP3K7 (human)) was 8%, the kinase still bound, per cent of control (ANKK1 (human)) was 70% and the kinase still bound, per cent of control [3] was 57%. The kinase still bound, per cent of control (DDR1 (human)) was 100%, the kinase still bound, per cent of control (ICK (human)) was 20% and the kinase still bound, per cent of control [4] was 0.2%. It also gave a kinase still bound, per cent of control (RPS6KA1 KD1 (human)) of 36%, a kinase still bound, per cent of control [5] of 0% and a kinase still bound, per cent of control (MAP2K7 (human)) of 79%. For the same compound, the kinase still bound, per cent of control (CDK2 (human)) was 36%, the kinase still bound, per cent of control [6] was 0.2% and the kinase still bound, per cent of control (FRK (human)) was 84%. The kinase still bound, per cent of control (FLT3 (human)) was 1.4%, the kinase still bound, per cent of control (ZAP70 (human)) was 35% and the kinase still bound, per cent of control (MAPK10 (human)) was 20%. It also gave a kinase still bound, per cent of control [7] of 10% and a kinase still bound, per cent of control (RPS6KB1 (human)) of 23%.
